The values that follow come from publication PMC11956012, “Optimization of Cyclophilin B-Targeted Tri-vector Inhibitors for Novel MASH Treatments” (Journal of Medicinal Chemistry, 2025).

A short description of one series: Caco-2 permeability. Conditions: human, Caco-2. A general note: Caco-2 cells form a polarised layer with tight junctions and transporters.
The test system of a further series is Caco-2. The series can be described thus: Caco-2 permeability. Conditions: apparent permeability A-B.
The target in series [1] is T1, Cyp B (Homo sapiens, UniProt P23284). Nature of the series: biochemical.
T1 sequence (P23284 32-216 limits assumed): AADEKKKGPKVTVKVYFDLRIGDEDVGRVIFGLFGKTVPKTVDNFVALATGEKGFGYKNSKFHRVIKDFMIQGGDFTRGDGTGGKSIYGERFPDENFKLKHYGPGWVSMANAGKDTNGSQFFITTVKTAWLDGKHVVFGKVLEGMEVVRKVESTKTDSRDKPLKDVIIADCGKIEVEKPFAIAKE
Protocol: (§1) The cyclophilin binding properties of the compounds were assessed by Surface Plasmon Resonance (SPR) against Cyp A, B and D isoforms (Table 1, representative sensorgrams are shown in Figure 3A).[35]
Surface Plasmon Resonance (SPR)
(§2) SPR measurements were performed on a Biacore T200 instrument (Cytiva). Ni2+ -
(§3) nitrilotriacetic acid (NTA) sensor chips, 1-ethyl-3-(3-diaminopropyl) carbodiimide
(§4) hydrochloride (EDC) and N hydroxy succinimide (NHS) were purchased from Cytiva.
(§5) Immobilization and covalent stabilization of His-Cyps Pure His-cyclophilins on the NTA
(§6) sensor chip was performed essentially as described. [Wear et al., 2017, FEBS OpenBio], using
(§7) 200 nM concentrations of each protein, in Running Buffer (PBS, pH7.4; 0.05 % surfactant P20,
(§8) 2% v/v ethanol; 50 µM EDTA), at 30 µl min-1 with 60 second contact times on the activated
(§9) NTA surfaces. This gave signals of 1,921 RU for His-CypA, 1932 RU for His-CypB and 1,397
(§10) RU for His-CypD. Specific surface protein activity was assayed by passing saturating amounts
(§11) activity were obtained for His-CypA, -B and –D, respectively.
Kinetic titration experiments
(§12) Single cycle kinetic titration binding experiments were performed in triplicate at 25 °C. 3-fold
(§13) injected over the sensor surface, at 100 µl min-1 with a 90 s contact time and a 90 s dissociation
(§14) time. The sensor surface was regenerated between experiments by dissociating any formed
(§15) complex in running buffer for at least 1,200 seconds. The apparent on-rate (k+) and off-rate (k-
(§16) ) constants and the equilibrium dissociation constant (Kd) were calculated from reference
Series [2] is described as follows: Intrinsic clearance, human liver microsomes. The series is classed as in vitro ADME. To be noted: for microsomal CLint: Table 3, read-out: Human Liver microsomes CL; for half-life: read-out: Human Liver microsomes t1/2. (Microsomes from liver hold many membrane-bound enzymes, among them those of drug oxidation.)
Series [3] can be described thus: Intrinsic clearance, rat liver microsomes. To be noted: for microsomal CLint: Table 3, read-out: Rat Liver microsomes CL; for half-life: read-out: Rat Liver microsomes t1/2. The series is classed as in vitro ADME.
The subject of series [4] is Salmonella typhimurium strains (TA98, TA100, TA1535, TA1537). The series can be described thus: Ames tests, all strains (summary in words). Conditions: in absence and presence of liver S9 fractions. On the technique in general: In the Ames test, an excess of revertant colonies over the control signals mutagenicity.
Protocol: (§17) Bacterial cytotoxicity tests were carried out using Reverted Salmonella typhimurium strains
(§18) (TA98, TA100, TA1535, TA1537) that were incubated 96 hours at 37 Celsius. The results for
(§19) cytotoxicity are expressed as percent of control growth (OD650). Compounds with growth of
(§20) less than 60 % of control are flagged and considered cytotoxic.
(§21) Compounds were incubated for 96 hours at 37°C at 4 different concentrations (5 mM, 10 mM,
(§22) the absence and presence of rat liver S9 microsomes.
(§23) to the reversion of the histidine mutation (as judged by the ratio of OD430/OD570 being greater
(§24) than 1.0) are counted and recorded as positive counts. The significance of the positive counts
(§25) between the treatment (in the presence of test compound) and the control (in the absence of test
(§26) compound) are calculated using the one-tailed Fisher's exact test. Three significance levels are
(§27) Very strong positive, if p < 0.001, denoted as "+++"
(§28) Control experiments were carried out with 2-aminoanthracene (10 mM), 9-aminoacridine (10
(§29) mM), quercetin (30 mM) and streptozocitin (2.5 mM).
A short description of series [5]: Aqueous kinetic solubility, shake-flask.
Protocol: (§30) These experiments were subcontracted to Eurofins.
(§31) Kinetic solubility measurements were carried out using a shake-flask technique. Compounds
(§32) were incubated for 24 hours at room temperature. Aqueous solubility (μM) was determined by
(§33) comparing the peak area of the principal peak in a calibration standard (200 μM) containing
(§34) organic solvent (methanol/water, 60/40, v/v) with the peak area of the corresponding peak in a
(§35) buffer sample. In addition, chromatographic purity (%) was defined as the peak area of the
(§36) principal peak relative to the total integrated peak area in the HPLC chromatogram of the
(§37) calibration standard. A chromatogram of the calibration standard of each test compound, along
(§38) with a UV/VIS spectrum with labeled absorbance maxima, was generated.
(§39) These were measured using a shake-flask technique. Compounds were incubated for 60 min at
(§40) room temperature. The total amount of compound was determined as the peak area of the
(§41) principal peak in a calibration standard (100 μM) containing organic solvent (methanol/water,
(§42) 60/40, v/v). The amount of compound in buffer was determined as the combined, volume
(§43) corrected, and weighted areas of the corresponding peaks in the aqueous phases of three
(§44) organic-aqueous samples of different composition. An automated weighting system was used
(§45) to ensure the preferred use of raw data from those samples with well quantifiable peak signals.
(§46) The amount of compound in organic was calculated by subtraction. Subsequently, Log D was
(§47) calculated as the Log10 of the amount of compound in the organic phase divided by the amount
of compound in the aqueous phase.
Series [6] concerns Salmonella typhimurium TA98. The series can be described thus: Ames fluctuation test TA98. Conditions: for Ames fluctuation test TA98 +S9: with rat liver S9; for Ames fluctuation test TA98 –S9: without S9.
Protocol: as §17, §18, §19, §20, §21, §22, §23, §24, §25, §26, §27, §28, §29
Series [7] concerns Salmonella typhimurium TA1537. The series can be described thus: Ames fluctuation test TA1537. To be noted: for Ames fluctuation test TA1537 +S9: with rat liver S9; for Ames fluctuation test TA1537 –S9: without S9.
Protocol: as §17, §18, §19, §20, §21, §22, §23, §24, §25, §26, §27, §28, §29
A short description of series [8]: Intrinsic clearance, human hepatocytes. It is filed as in vitro ADME. To be noted: hepatocytes; for hepatocyte CLint: Table 3, read-out: Human Hepatocytes CL; for half-life: read-out: Human Hepatocytes t1/2.
In the next series the target is Cyp D (Homo sapiens, UniProt P30405).
Chain of Cyp D (P30405 42-207): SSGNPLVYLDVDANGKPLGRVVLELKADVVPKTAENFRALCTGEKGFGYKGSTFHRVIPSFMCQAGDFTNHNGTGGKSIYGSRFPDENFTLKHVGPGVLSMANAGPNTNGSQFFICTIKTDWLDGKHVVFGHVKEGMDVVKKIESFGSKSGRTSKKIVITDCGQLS
The subject of series [9] is Salmonella typhimurium TA100. Nature of the series: Ames fluctuation test TA100. Conditions: for Ames fluctuation test TA100 +S9: with rat liver S9; for Ames fluctuation test TA100 –S9: without S9.
Protocol: as §17, §18, §19, §20, §21, §22, §23, §24, §25, §26, §27, §28, §29
Another series addresses Cyp A (Homo sapiens, UniProt P62937).
In series [10] the test system is Salmonella typhimurium TA1535. The series can be described thus: Ames fluctuation test TA1535. To be noted: for Ames fluctuation test TA1535 +S9: with rat liver S9; for Ames fluctuation test TA1535 –S9: without S9.
Protocol: as §17, §18, §19, §20, §21, §22, §23, §24, §25, §26, §27, §28, §29
Series [11] is described as follows: Partition coefficient (Log D), shake-flask. Conditions: octanol/water.
Protocol: as §30, §31, §32, §33, §34, §35, §36, §37, §38, §39, §40, §41, §42, §43, §44, §45, §46, §47
of compound in the aqueous phase.
Series [12] can be described thus: Intrinsic clearance, rat hepatocytes. It is filed as in vitro ADME. To be noted: hepatocytes; for hepatocyte CLint: Table 3, read-out: Rat Hepatocytes CL; for half-life: read-out: Rat Hepatocytes t1/2.
A further series concerns iPSC-derived hepatocytes. Nature of the series: In vitro hepatic steatosis (MASH) assay. The series is classed as cell-based. Conditions: 48 h treatment.
Series [13] concerns the target T1, Cyp B. To be noted: from SPR Kd.
Protocol: as §1
Surface Plasmon Resonance (SPR)
as §2, §3, §4, §5, §6, §7, §8, §9, §10, §11
Kinetic titration experiments
as §12, §13, §14, §15, §16
Series [14] concerns permeabilised human hepatocyte (HepG2) cells. Nature of the series: Calcium Retention Capacity assay. The series is classed as cell-based. Conditions: Homo sapiens; digitonin-permeabilised HepG2 cells; read-out: EC50 CRC assay.
Protocol: Calcium Retention Capacity Assay
The compounds were prepared as a 10 mM stock solution in 100% DMSO. Subsequent dilutions were made in 100% DMSO and then in assay buffer to 10-fold the final concentration.
HepG2 cells were permeabilized with 100 µM digitonin for 10 min in ice cold buffer containing 1mM EGTA. Following two wash steps to remove the digitonin, the cells were plated into 96 well black and clear plates at 106 cell per well in a 180 µL assay buffer containing 0.5 µM Calcium Green 5N. Compounds dilution were prepared in DMSO to 1000 fold the final concentration, diluted 1:100 in assay buffer and added to the assay as 20 µL per well. The assay buffer contained 5 mM glutamate and 2.5 mM malate. The cell plate was immediately run on the FLIPR Tetratm which added 5 µL of 200 µM (5 µM) calcium chloride every 5 minutes whilst reading the plate every 3 seconds. The area under the curve (AUC) of the raw trace was calculated at each concentration. AUC values were plotted against concentration and EC50 values calculated. Experiments were repeated three times and the EC50 value was determined from a curve fitted to the averaged replicates.
The mark [15] stands for this setting: Kd Cyp B, SPR-derived dissociation constant, 25 °C.

SMILES strings stand for the structures. Read-outs that look alike come from different tables or passages of the source.

Chain of Cyp A (P62937 whole entry): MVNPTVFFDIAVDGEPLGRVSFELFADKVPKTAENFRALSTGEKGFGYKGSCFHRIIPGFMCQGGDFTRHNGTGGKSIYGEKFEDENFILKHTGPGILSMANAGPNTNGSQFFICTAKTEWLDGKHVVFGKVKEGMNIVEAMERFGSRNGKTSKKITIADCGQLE
Protocol for Cyp A: as §1
Surface Plasmon Resonance (SPR)
as §2, §3, §4, §5, §6, §7, §8, §9, §10, §11
Kinetic titration experiments
as §12, §13, §14, §15, §16
Protocol for Cyp D: as §1
Surface Plasmon Resonance (SPR)
as §2, §3, §4, §5, §6, §7, §8, §9, §10, §11
Kinetic titration experiments
as §12, §13, §14, §15, §16

A word on the efflux ratio: it is a quotient of directional permeabilities that is used to spot active efflux. As usually defined, the Kd is the equilibrium constant for the complex coming apart. A higher Kd goes with a looser complex. As usually defined, the solubility is how much of the substance goes into solution per volume. A word on the logD: it is lipophilicity at a set pH, counting ionised and neutral species. Low readings indicate lower lipophilicity, high ones higher lipophilicity. Consider `Cn1nnc(CN(Cc2ccc(N)c(Cl)c2)C(=O)NCC(=O)N2CCC[C@@H]2c2ccccc2Br)n1` [Compound 10, 1-[(4-Amino-3-chloro-phenyl)methyl]-1-[(2-methyltetrazol-5-yl)methyl]-3-[2-oxo-2-[(2R)-2-(2-bromophenyl)pyrrolidin-1-yl]ethyl]urea], for which the efflux ratio in the series “Caco-2 permeability” stood at 1.9. Besides, the “Caco-2 A-B” value in the series with Caco-2 is recorded as 6.6 10^–6 cm/s. Also, the results for the Kd at Cyp B [1], on Cyp D and at Cyp A were 0.035 ± 0.006 µM, 0.58 ± 0.1 µM and 0.2 ± 0.04 µM, respectively. The values for the microsomal CLint in [2] and in series [3] were 344 µL/min/mg and 238 µL/min/mg, respectively. In addition, the half-life in series [2] is 20 min; in [3] it was 29 min; in series [8] it was 85 min; in series [12], greater than 120 min. Besides, the “Ames result in all strains tested” value in [4] is “negative”. The solubility at 24 h was greater than 200 µM in series [5] (PBS, pH 7.4); greater than 200 µM in series [5] (simulated gastric fluid); greater than 200 µM in [5] (simulated intestinal fluid). Also, the “Ames fluctuation test TA98 +S9” value in series [6] is reported as “neg/neg”. In addition, in [6], the “Ames fluctuation test TA98 –S9” value was “neg/neg”. In [7], the “Ames fluctuation test TA1537 +S9” value was “neg/neg”. Also, the “Ames fluctuation test TA1537 –S9” value in series [7] was “neg/neg”. For the same molecule, the results for the hepatocyte CLint in series [8] and in series [12] were 12 µL/min/1e6 cells and less than 8 µL/min/1e6 cells, respectively. In addition, the “Ames fluctuation test TA100 +S9” value in [9] is “neg/neg”. Moreover, in [9], the “Ames fluctuation test TA100 –S9” value is reported as “neg/neg”. Further, in series [10], the “Ames fluctuation test TA1535 +S9” value is on record as “neg/neg”. Besides, the “Ames fluctuation test TA1535 –S9” value in series [10] is recorded as “neg/neg”. Further, the logD at 1 h, 100 µM in series [11] was determined as 1.74.
For the molecule `CSc1ccccc1[C@H]1CCCN1C(=O)CN1C(=O)N(Cc2ccc(N)c(Cl)c2)CC1=NNC(C)=O` [Compound 16, N-[[1-[(4-amino-3-chloro-phenyl)methyl]-2-oxo-3-[2-oxo-2-[(2R)-2-(2-methylsulfanylphenyl)pyrrolidin-1-yl]ethyl]imidazolidin-4-ylidene]amino]acetamide], the dissociation constant (Kd) at Cyp B [1] came out at 4.5 ± 0.5 µM; on Cyp D, 9.1 ± 0.9 µM; on Cyp A, 7.1 ± 1.25 µM.
What is called EC50 is the concentration at which the effect is half-maximal. Regarding `CSc1ccccc1[C@H]1CCCN1C(=O)CNC(=O)N(Cc1cnc(N)nc1)Cc1ncc(C)s1` [Compound 12, 1-[(2-Aminopyrimidin-5-yl)methyl]-1-[(5-methylthiazol-2-yl)methyl]-3-[2-oxo-2-[(2R)-2-(2-methylsulfanylphenyl)pyrrolidin-1-yl]ethyl]urea], in the series “Caco-2 permeability”, the efflux ratio worked out at 16. For the same molecule, in the series with Caco-2, the “Caco-2 A-B” value is reported as 0.8 10^–6 cm/s. Also, the Kd on Cyp B [1] (setting [15]) worked out at 0.088 ± 0.02 µM; at Cyp D, 1.5 ± 0.5 µM; at Cyp A, 7.3 ± 1 µM. Moreover, the microsomal CLint in series [2] is 604 µL/min/mg; in series [3] it was 449 µL/min/mg. For the same molecule, the half-life in [2] was determined as 11 min; in [3], 15 min; in series [8], 94 min; in [12] it was 84 min. Further, the “Ames result in all strains tested” value in series [4] is given as “negative”. The solubility at 24 h in series [5] (PBS, pH 7.4) is greater than 200 µM; in series [5] (simulated gastric fluid) it was greater than 200 µM; in series [5] (simulated intestinal fluid), greater than 200 µM. The “effect on hepatocyte overall lipid levels and lipid droplet size (in words)” value in the series on iPSC-derived hepatocytes is reported as “lack of potency”. Besides, the half-maximal effective concentration (EC50) with iPSC-derived hepatocytes (Hepatocyte, 48 h, read-out: EC50 MASH assay) was greater than 10 µM. Also, the “Ames fluctuation test TA98 +S9” value in series [6] is listed as “neg/neg”. Moreover, the “Ames fluctuation test TA98 –S9” value in [6] is “neg/neg”. Besides, the “Ames fluctuation test TA1537 +S9” value in series [7] is “neg/neg”. Further, the “Ames fluctuation test TA1537 –S9” value in series [7] is given as “neg/neg”. At Cyp B [13], the “selectivity for Cyp B over Cyp A” value is recorded as 80 fold. The values for the hepatocyte CLint in [8] and in [12] were 11 µL/min/1e6 cells and 12 µL/min/1e6 cells, respectively. Besides, the “Ames fluctuation test TA100 +S9” value in series [9] is recorded as “neg/neg”. For the same molecule, the “Ames fluctuation test TA100 –S9” value in series [9] was “neg/neg”. Also, the “Ames fluctuation test TA1535 +S9” value in [10] is “neg/neg”. Further, the “Ames fluctuation test TA1535 –S9” value in series [10] is “neg/neg”. This molecule also came in with a logD at 1 h, 100 µM in series [11] of 1.27.
Consider `CSc1ccccc1[C@H]1CCCN1C(=O)CNC(=O)N(Cc1ccc(N)cc1)Cc1nnn(C)n1` [Compound 2, 1-[(4-Aminophenyl)methyl]-1-[(2-methyltetrazol-5-yl)methyl]-3-[2-oxo-2-[(2R)-2-(2-methylsulfanylphenyl)pyrrolidin-1-yl]ethyl]urea], for which the Kd on Cyp B [1] amounted to 0.012 ± 0.004 µM; at Cyp D, 0.08 ± 0.01 µM; at Cyp A, 0.09 ± 0.01 µM. The EC50 in series [14] was 1.39 µM.
On to `CSc1ccccc1[C@H]1CCCN1C(=O)CNC(=O)N(Cc1cc(F)c(N)c(F)c1)Cc1nnn(C)n1` [Compound 5, 1-[(4-Amino-3,5-difluoro-phenyl)methyl]-1-[(2-methyltetrazol-5-yl)methyl]-3-[2-oxo-2-[(2R)-2-(2-methylsulfanylphenyl)pyrrolidin-1-yl]ethyl]urea], for which the Kd on Cyp B [1] stood at 0.2 ± 0.04 µM; at Cyp D it was 1.01 ± 0.12 µM; at Cyp A it was 1.16 ± 0.2 µM.
Regarding `CSc1ccccc1[C@H]1CCCN1C(=O)CNC(=O)N(Cc1cnc(N)c(Cl)c1)Cc1nnc(C)s1` [Compound 14, 1-[(6-Amino-5-chloro-3-pyridyl)methyl]-1-[(5-methyl-1,3,4-thiadiazol-2-yl)methyl]-3-[2-oxo-2-[(2R)-2-(2-methylsulfanylphenyl)pyrrolidin-1-yl]ethyl]urea], the Kd at Cyp B [1] was found to be 0.092 ± 0.075 µM; at Cyp D, 2.4 ± 0.43 µM; on Cyp A, 0.96 ± 0.13 µM.
Taken in the same sequence, the figures for `CSc1ccccc1[C@H]1CCCN1C(=O)CNC(=O)N(Cc1cc(F)c(N)c(F)c1)Cc1cn(C)nn1` [Compound 6, 1-[(4-Amino-3,5-difluoro-phenyl)methyl]-1-[(1-methyltriazol-4-yl)methyl]-3-[2-oxo-2-[(2R)-2-(2-methylsulfanylphenyl)pyrrolidin-1-yl]ethyl]urea] were 0.63 ± 0.1 µM, 2.97 ± 0.8 µM and 4.6 ± 2.4 µM.
As to `CC(=O)NN=C1CN(Cc2ccc(N)c(Cl)c2)C(=O)N1CC(=O)N1CCC[C@@H]1c1ccccc1Br` [Compound 17, N-[[1-[(4-amino-3-chloro-phenyl)methyl]-3-[2-[(2R)-2-(2-bromophenyl)pyrrolidin-1-yl]-2-oxo-ethyl]-2-oxo-imidazolidin-4-ylidene]amino]acetamide], the dissociation constant Kd on Cyp B [1], at Cyp D and at Cyp A was greater than 10 µM throughout.
Take `CC(=O)NN=C1CN(Cc2cnc(N)c(Cl)c2)C(=O)N1CC(=O)N1CCC[C@@H]1c1ccccc1Br` [Compound 19, N-[[1-[(6-amino-5-chloro-3-pyridyl)methyl]-2-oxo-3-[2-oxo-2-[(2R)-2-(2-bromophenyl) Pyrrolidin-1-yl]ethyl]imidazolidin-4-ylidene]amino]acetamide]: the Kd on Cyp B [1], on Cyp D and at Cyp A was greater than 10 µM throughout.
As to `C#CCN(Cc1cc(F)c(N)c(F)c1)C(=O)NCC(=O)N1CCC[C@@H]1c1ccccc1SC` [Compound 7, 1-[(4-Amino-3,5-difluoro-phenyl)methyl]-3-[2-oxo-2-[(2R)-2-(2-methylsulfanylphenyl)pyrrolidin-1-yl]ethyl]-1-prop-2-ynyl-urea], the Kd on Cyp B [1] came out at 3.74 ± 0.78 µM; at Cyp D, 5.85 ± 2 µM; on Cyp A it was 8.75 ± 2.9 µM.
Taken in the same sequence, the figures for `CSc1ccccc1[C@H]1CCCN1C(=O)CN1C(=O)N(Cc2cnc(N)c(Cl)c2)CC1=NNC(C)=O` [Compound 18, N-[[1-[(6-amino-5-chloro-3-pyridyl)methyl]-3-[2-[(2R)-2-(2-methylsulfanylphenyl) Pyrrolidin-1-yl]-2-oxo-ethyl]-2-oxo-imidazolidin-4-ylidene]amino]acetamide] were greater than 10 µM, greater than 10 µM and greater than 10 µM.
`CSc1ccccc1[C@H]1CCCN1C(=O)CNC(=O)N(Cc1cnc(N)nc1)Cc1nnc(C)s1` [Compound 13, 1-[(2-Aminopyrimidin-5-yl)methyl]-1-[(5-methyl-1,3,4-thiadiazol-2-yl)methyl]-3-[2-oxo-2-[(2R)-2-(2-methylsulfanylphenyl)pyrrolidin-1-yl]ethyl]urea]: the dissociation constant Kd came to 0.184 ± 0.007 µM on Cyp B [1], 1.2 ± 0.3 µM on Cyp D and 0.67 ± 0.1 µM on Cyp A.
For `CSc1ccccc1[C@@H]1CCCN1C(=O)CNC(=O)N(Cc1ccc2c(c1)[C@@H]1C[C@@H](N2)[C@H](O)CO1)Cc1nnn(C)n1` [Compound 4, 1-[[(1S,9R,10S)-10-Hydroxy-12-oxa-8-azatricyclo[7.3.1.0,^27]trideca-2,4,6-trien-4-yl]methyl]-3-[2-[(2S)-2-(2-methylsulfanylphenyl)pyrrolidin-1-yl]-2-oxo-ethyl]-1-[(2-methyltetrazol-5-yl)methyl]urea], the dissociation constant (Kd) on Cyp B [1] (setting [15]) worked out at 0.42 ± 0.08 µM; on Cyp D it was 0.4 ± 0.03 µM; at Cyp A, 0.31 ± 0.04 µM. Moreover, the EC50 in series [14] turned out to be 4.12 µM.
